Laboratory results as given in PubChem BioAssay AID248 (DTP/NCI, 2004).
“And” between values parts separate entries of the source, which are not always exact repeats. Identical values can stand only once. Toxic doses and inconclusive results are not listed.

Test system: L1210 leukemia ip in BDF1 mice, survival T/C
Experiment: NCI In Vivo Anticancer Drug Screen. Data for tumor model L1210 Leukemia (intraperitoneal) in B6D2F1 (BDF1) mice
Conditions: endpoint: mean survival time, higher = longer survival
Method in brief: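 In this screen, tumor-bearing mice given compound are compared to those given vehicle, and their survival values are reported as a treated-to-control quotient.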

[1] = dose: 100.0 mg/kg/injection, schedule: Q01DX009 (ip), vehicle: saline with Tween-80
[2] = dose: 100.0 mg/kg/injection, schedule: Q04DX002 (ip), vehicle: saline with Tween-80
[3] = dose: 200.0 mg/kg/injection, schedule: Q01DX009 (ip), vehicle: saline with Tween-80
[4] = dose: 200.0 mg/kg/injection, schedule: Q04DX002 (ip), vehicle: saline with Tween-80
[5] = dose: 400.0 mg/kg/injection, schedule: Q04DX002 (ip), vehicle: saline with Tween-80
[6] = dose: 100.0 mg/kg/injection, schedule: Q01DX001 (ip), vehicle: saline
[7] = dose: 200.0 mg/kg/injection, schedule: Q01DX001 (ip), vehicle: saline
[8] = dose: 400.0 mg/kg/injection, schedule: Q01DX001 (ip), vehicle: saline
[9] = dose: 25.0 mg/kg/injection, schedule: Q01DX009 (ip), vehicle: Klucel (hydroxypropylcellulose) (HPC)
[10] = dose: 50.0 mg/kg/injection, schedule: Q01DX009 (ip), vehicle: Klucel (hydroxypropylcellulose) (HPC)
[11] = dose: 100.0 mg/kg/injection, schedule: Q01DX009 (ip), vehicle: Klucel (hydroxypropylcellulose) (HPC)
[12] = dose: 12.5 mg/kg/injection, schedule: Q01DX009 (ip), vehicle: Klucel (hydroxypropylcellulose) (HPC)
[13] = dose: 100.0 mg/kg/injection, schedule: Q04DX003 (ip), vehicle: Klucel (hydroxypropylcellulose) (HPC)
[14] = dose: 200.0 mg/kg/injection, schedule: Q04DX003 (ip), vehicle: Klucel (hydroxypropylcellulose) (HPC)
[15] = dose: 400.0 mg/kg/injection, schedule: Q04DX003 (ip), vehicle: Klucel (hydroxypropylcellulose) (HPC)
[16] = dose: 50.0 mg/kg/injection, schedule: Q01DX009 (ip), vehicle: saline
[17] = dose: 25.0 mg/kg/injection, schedule: Q04DX002 (ip), vehicle: Klucel (hydroxypropylcellulose) (HPC)
[18] = dose: 50.0 mg/kg/injection, schedule: Q04DX002 (ip), vehicle: Klucel (hydroxypropylcellulose) (HPC)
[19] = dose: 100.0 mg/kg/injection, schedule: Q04DX002 (ip), vehicle: Klucel (hydroxypropylcellulose) (HPC)
[20] = dose: 200.0 mg/kg/injection, schedule: Q04DX002 (ip), vehicle: Klucel (hydroxypropylcellulose) (HPC)
[21] = dose: 200.0 mg/kg/injection, schedule: Q01DX009 (ip), vehicle: Klucel (hydroxypropylcellulose) (HPC)

CC(C)NC(=O)C1CC2c3cccc4c3c(cn4CN(C)C)CC2N(C)C1 (centres undefined)
T/C (dose: 2.5 mg/kg/injection, schedule: Q04DX003 (ip), vehicle: saline): 101 % of control
T/C (dose: 5.0 mg/kg/injection, schedule: Q04DX003 (ip), vehicle: saline): 101 % of control
T/C (dose: 10.0 mg/kg/injection, schedule: Q04DX003 (ip), vehicle: saline): 100 % of control
T/C (dose: 12.5 mg/kg/injection, schedule: Q04DX002 (ip), vehicle: saline): 113 % of control
T/C (dose: 20.0 mg/kg/injection, schedule: Q04DX003 (ip), vehicle: saline): 101 % of control
T/C (dose: 25.0 mg/kg/injection, schedule: Q04DX002 (ip), vehicle: saline): 108 % of control

CC(=O)c1cccc(NC(=O)Oc2cc(C)c(Cl)c(C)c2)c1
T/C (dose: 100.0 mg/kg/injection, schedule: Q01DX001 (ip), vehicle: saline with Tween-80): 97 % of control
T/C [1]: 94 % of control and 92 % of control
T/C [2]: 94 % of control and 101 % of control
T/C (dose: 100.0 mg/kg/injection, schedule: Q04DX003 (ip), vehicle: saline with Tween-80): 93 % of control
T/C (dose: 200.0 mg/kg/injection, schedule: Q01DX001 (ip), vehicle: saline with Tween-80): 100 % of control
T/C [3]: 88 % of control and 89 % of control
T/C [4]: 93 % of control and 89 % of control
T/C (dose: 200.0 mg/kg/injection, schedule: Q04DX003 (ip), vehicle: saline with Tween-80): 87 % of control
T/C (dose: 400.0 mg/kg/injection, schedule: Q01DX001 (ip), vehicle: saline with Tween-80): 98 % of control
T/C (dose: 400.0 mg/kg/injection, schedule: Q01DX009 (ip), vehicle: saline with Tween-80): 91 % of control
T/C [5]: 96 % of control and 101 % of control
T/C (dose: 400.0 mg/kg/injection, schedule: Q04DX003 (ip), vehicle: saline with Tween-80): 90 % of control

COc1ccc(OC)c(-c2cc3c(OC)ccc(OC)c3[nH]2)c1
T/C (dose: 25.0 mg/kg/injection, schedule: Q04DX002 (ip), vehicle: saline with Tween-80): 96 % of control
T/C (dose: 50.0 mg/kg/injection, schedule: Q04DX002 (ip), vehicle: saline with Tween-80): 86 % of control
T/C [2]: 99 % of control

CCOC(=O)c1c(OC)cc2n(c1=O)Cc1cc3ccccc3nc1-2
T/C (dose: 150.0 mg/kg/injection, schedule: Q01DX009 (ip), vehicle: saline with Tween-80): 86 % of control
T/C (dose: 225.0 mg/kg/injection, schedule: Q01DX009 (ip), vehicle: saline with Tween-80): 89 % of control
T/C (dose: 335.0 mg/kg/injection, schedule: Q01DX009 (ip), vehicle: saline with Tween-80): 89 % of control

CNS(=O)(=O)c1ccccc1C(=O)c1ccccc1
T/C [6]: 100 % of control
T/C [7]: 97 % of control
T/C [8]: 103 % of control

O=[N+]([O-])c1ccc(Sc2ccc([N+](=O)[O-])cc2)cc1
T/C (dose: 50.0 mg/kg/injection, schedule: Q01DX009 (ip), vehicle: saline with Tween-80): 92 % of control
T/C [1]: 91 % of control
T/C [3]: 89 % of control

O=C(Nc1ccccc1F)Oc1ccc([N+](=O)[O-])cc1
T/C [9]: 106 % of control
T/C [10]: 95 % of control
T/C [11]: 94 % of control and 112 % of control

O=C1c2ccccc2C(=O)N1Cc1cccc([N+](=O)[O-])c1
T/C [12]: 87 % of control
T/C [9]: 87 % of control
T/C [10]: 94 % of control
T/C [13]: 93 % of control
T/C [14]: 97 % of control
T/C [15]: 90 % of control

COC(=O)C(C)(N)Cc1ccc(O)cc1 (centres undefined)
T/C [16]: 102 % of control
T/C (dose: 100.0 mg/kg/injection, schedule: Q01DX009 (ip), vehicle: saline): 97 % of control
T/C (dose: 100.0 mg/kg/injection, schedule: Q04DX003 (ip), vehicle: saline): 96 % of control
T/C (dose: 200.0 mg/kg/injection, schedule: Q01DX009 (ip), vehicle: saline): 105 % of control
T/C (dose: 200.0 mg/kg/injection, schedule: Q04DX003 (ip), vehicle: saline): 93 % of control

CCOC(=O)N(OC(C)=O)P(=O)(N1CC1(C)C)N1CC1(C)C (centres undefined)
T/C (dose: 100.0 mg/kg/injection, schedule: Q04DX002 (ip), vehicle: saline): 100 % of control
T/C (dose: 200.0 mg/kg/injection, schedule: Q04DX002 (ip), vehicle: saline): 123 % of control

COc1cc(Cn2cccc2/C=N/NC(N)=S)c([N+](=O)[O-])cc1OC
T/C [17]: 100 % of control
T/C [18]: 104 % of control
T/C [19]: 93 % of control

N[n+]1ccccc1
T/C [2]: 102 % of control
T/C [4]: 102 % of control
T/C [5]: 98 % of control

CCOC(=O)CNc1ccc(Cl)cc1
T/C [17]: 98 % of control and 106 % of control
T/C [18]: 102 % of control
T/C [19]: 101 % of control and 91 % of control
T/C [20]: 102 % of control

O=C(O)c1oc(Br)cc1Br
T/C (dose: 12.5 mg/kg/injection, schedule: Q04DX003 (ip), vehicle: other): 96 % of control
T/C (dose: 25.0 mg/kg/injection, schedule: Q04DX003 (ip), vehicle: other): 102 % of control
T/C (dose: 50.0 mg/kg/injection, schedule: Q04DX003 (ip), vehicle: other): 101 % of control

Cc1cccc(C)c1NC(=S)NC1CC(C)CC(C)(C)C1 (centres undefined)
T/C [12]: 100 % of control
T/C [9]: 109 % of control
T/C [10]: 96 % of control

CCCCCCCCCCCCC/C=N/Nc1nnc(N/N=C/CCCCCCCCCCCCC)c2ccccc12
T/C (dose: 50.0 mg/kg/injection, schedule: Q01DX001 (ip), vehicle: saline): 106 % of control
T/C [6]: 106 % of control
T/C [7]: 109 % of control
T/C [8]: 118 % of control

CCCCOc1ccc(OC(=O)Nc2cc(C)ccc2C)cc1
T/C [11]: 91 % of control
T/C [13]: 108 % of control
T/C [21]: 96 % of control
T/C [14]: 95 % of control
T/C (dose: 400.0 mg/kg/injection, schedule: Q01DX009 (ip), vehicle: Klucel (hydroxypropylcellulose) (HPC)): 98 % of control
T/C [15]: 90 % of control

CCS(=O)(=O)c1nc2ccccc2[nH]1
T/C [19]: 97 % of control
T/C [20]: 108 % of control
T/C (dose: 400.0 mg/kg/injection, schedule: Q04DX002 (ip), vehicle: Klucel (hydroxypropylcellulose) (HPC)): 108 % of control

COC(=O)N1C2CCC(C2=C(C)C)N1C(=O)OC
T/C (dose: 50.0 mg/kg/injection, schedule: Q04DX003 (ip), vehicle: Klucel (hydroxypropylcellulose) (HPC)): 105 % of control
T/C [13]: 102 % of control
T/C [14]: 94 % of control

OCn1cnc2c(SC3CCCC3)ncnc21
T/C (dose: 35.0 mg/kg/injection, schedule: Q01DX015 (ip), vehicle: saline): 114 % of control
T/C [16]: 112 % of control
T/C (dose: 50.0 mg/kg/injection, schedule: Q01DX015 (ip), vehicle: saline): 123 % of control
T/C (dose: 80.0 mg/kg/injection, schedule: Q01DX009 (ip), vehicle: saline): 119 % of control
T/C (dose: 88.0 mg/kg/injection, schedule: Q01DX009 (ip), vehicle: Klucel (hydroxypropylcellulose) (HPC)): 154 % of control
T/C [6]: 88 % of control
T/C (dose: 120.0 mg/kg/injection, schedule: Q01DX015 (ip), vehicle: saline): 153 % of control
T/C (dose: 180.0 mg/kg/injection, schedule: Q01DX009 (ip), vehicle: other): 152 % of control
T/C (dose: 180.0 mg/kg/injection, schedule: Q01DX015 (ip), vehicle: saline): 161 % of control
T/C [7]: 104 % of control
T/C [21]: 92 % of control
T/C (dose: 270.0 mg/kg/injection, schedule: Q01DX015 (ip), vehicle: saline): 113 % of control
T/C [8]: 111 % of control

CCCCNC(=O)C1CC2c3cc(Br)cc4[nH]c(Br)c(c34)CC2N(C)C1 (centres undefined)
T/C (dose: 25.0 mg/kg/injection, schedule: Q04DX003 (ip), vehicle: Klucel (hydroxypropylcellulose) (HPC)): 96 % of control
T/C [13]: 91 % of control
T/C [15]: 89 % of control
